Assay results from patent publication US11008572B2, “Methods and compositions for modulating splicing” (SKYHAWK THERAPEUTICS, INC., priority 2017, dated 2021).

Tests used:
IKBKAP^FL mRNA = test: IKBKAP splicing assay, qPCR; type: cell-based; conditions: 24 hours of incubation
Experimental: (§1) Various cells lines were treated with the SMSMs described herein. RNA was then isolated, cDNA synthesized, qPCR performed and the levels of IKBKAP targets of the SMSMs were determined.
(§2) On the day of the experiment, a 96-well plate was seeded with the cell lines of interest. The cells were diluted with full growth media to a concentration of 2.0×10^5 cells/mL and 100 μL of cells were added to each well (20,000 cells per well). The cells were treated with a compound immediately after plating.
(§3) The compounds were then added to the cell plate using the HP compound dispenser. In the initial experiment, a top concentration of 10 μM and an 8 point 4-fold dilution scheme was used. The stock compounds were made at a concentration of 5 mM, and the DMSO concentration was set to 0.2%. DMSO was used to normalize all the compound-containing wells and the untreated cells.
(§4) The treated cells were incubated at 37° C. in a 5% CO2 incubator for the desired amount of time. Plates were placed in a plastic bag with a wet paper towel to prevent evaporation.
(§5) RNA was isolated using the Cells to CT kit (ThermoFisher, AM1728). The cells were washed once with 100 μL cold PBS. 50 μL of lysis buffer was added to each well/tube (49.5 μL lysis buffer+0.5 μL DNase I per well/tube). The lysis reaction was mixed and incubated at room temperature for 5 minutes. 5 μL of stop solution was added directly into each cell lysis reaction and mixed by pipetting up and down 5 times. The plates/tubes were incubated at room temperature for 2 minutes then placed on ice if the cDNA synthesis was to be performed immediately. Otherwise, the plates/tubes were stored at −80° C.
(§6) cDNA synthesis reactions were then performed. 40 μL RT master mix was added to PCR tubes or plate wells. 10 μL of RNA was added to each tube/well. The RT thermal cycler program was then run and tubes or plate wells were incubated at 37° C. for 1 hour, then at 95° C. for 5 minutes to deactivate the enzyme.
(§7) The qPCR was performed using a QuantStudio 6 instrument (ThermoFisher) and the following cycling conditions and according to the tables below. All samples and standards were analyzed in triplicate. Cycle 1: 2 minutes at 50° C. Cycle 2: 10 minutes at 95° C. Cycle 3 (repeat 40 times): 15 seconds at 95° C., 1 minute at 60° C.
(§8) The determined IKBKAP^FL and […] isoform quantities were then used to determine the IKBKAP^FL: IKBKAP^Δ20 ratio at increasing SMSM compound concentrations. The PPIA quantities were used in the normalization to account of cell proliferation effects of the compounds.
(§9) An assay to measure the IKBKAP^FL mRNA and IKBKAP^Δ20 mRNA simultaneously in cell wells was performed. The RNA values were measured relative to DMSO control and also included a housekeeping gene, PPIA to ensure data was consistent. The mRNA values were measured after 24 hours of incubation with the SMSM compounds.

IKBKAP^Δ20 mRNA = test: IKBKAP splicing assay, qPCR; type: cell-based; conditions: 24 hours of incubation
Experimental: as §1, §2, §3, §4, §5, §6, §7, §8, §9

SMN2^FL mRNA = test: SMN2 splicing assay, real-time quantitative PCR, SMA type I patient cells (GM03813); type: cell-based; conditions: Homo sapiens, 24 hours
Experimental: (§10) Various cells lines were treated with the SMSMs described herein. RNA was then isolated, cDNA synthesized, qPCR performed and the levels of various mRNA targets of the SMSMs were determined. In some instances, RNA was isolated, cDNA synthesized, qPCR performed and the levels of mRNA isoforms in the various cell samples were determined.
(§11) SMA type I patient cells (GM03813 (Coriell))
as §2, §3, §4, §5, §6
as §7, with “a QuantStudio 6instrument (ThermoFisher) and” for “a QuantStudio 6 instrument (ThermoFisher) and”, “minutes at 95′C. Cycle 3” for “minutes at 95° C. Cycle 3”
(§12) The determined SMN2^Δ7 and SMN2^FL quantities were then be used to determine the SMN2^Δ7:SMN2^FL ratio at the various compound concentrations. The PPIA quantities were used in the normalization to account of cell proliferation effects of the compounds.
as §9, with “SMN2^FL” for “IKBKAP^FL”, “SMN2^Δ7” for “IKBKAP^Δ20”
(§13) Additionally, to monitor expression levels of SMN2 splice variant using real-time quantitative PCR, SMA type I patient cells (GM03813 (Coriell)) were plated at 5,000 cells/well in 200 μl Dulbecco's modified Eagle's medium (DMEM) with GlutaMAX and 10% fetal bovine serum (FBS) (Life Technologies, Inc.) in 96-well plates, and incubated for 6 hours in a cell culture incubator. Cells were then treated with SMSMs at different concentrations (0.5% DMSO) in duplicate for 24 hours. After removal of the supernatant, cells were lysed in Cells-To-Ct lysis buffer (Life Technologies, Inc.) according to the manufacturer's recommendations. The mRNA levels of SMN2 FL, SMN2 A7 were quantified using Taqman-based RT-qPCR and SMN2-specific primers and probes. The SMN2 forward and reverse primers were each used at a final concentration of 0.4 μM. The SMN2 probe was used at a final concentration of 0.1 μM. […]

SMN2^Δ7 mRNA = test: as above; type: cell-based; conditions: Homo sapiens, 24 hours
Experimental: as §10, §11, §2, §3, §4, §5, §6
as §7, with “a QuantStudio 6instrument (ThermoFisher) and” for “a QuantStudio 6 instrument (ThermoFisher) and”, “minutes at 95′C. Cycle 3” for “minutes at 95° C. Cycle 3”
as §12
as §9, with “SMN2^FL” for “IKBKAP^FL”, “SMN2^Δ7” for “IKBKAP^Δ20”
as §13

A375 xenografts = test: A375 xenograft tumor growth inhibition; type: in vivo; conditions: immunocompromised nude mice with pre-existing A375 xenografts
Experimental: Studies were performed to assess the effects of in vivo SMSM treatment on glioblastoma, breast, pancreatic, prostate, melanoma, lymphoma and Ewing sarcoma tumors. Studies were also performed to assess the effects of in vivo SMSM treatment on mRNA levels. Immunocompromised nude mice with pre-existing glioblastoma, breast, pancreatic, prostate, melanoma, lymphoma and Ewing sarcoma xenografts were treated with vehicle or SMSMs. Tumor tissues from subcutaneous xenografts were broken into a powder using a BioPulverizer (Biospec Products, Inc.). After SMSM treatment, mRNA was isolated from the xenografts and was analyzed by qRT-PCR.
Tumor size was measured 2 times per week in two dimensions using a caliper. Studies were terminated when the tumor size in the vehicle treated group reached 2,000 mm^3. Each mouse was bled at 2 hrs after the last dose and at least 50 μl of plasma was collected from each mouse. All of the collected plasma samples and retainer dosing solutions for each dose level were used for bioanalytical measurements. All tumors were also collected and weighed. One necrosis-free tumor fragment of approximately 50 mg was taken from each tumor and flash-frozen for RNA isolation. […]
The effects of in vivo SMSM treatments on pre-existing subcutaneous glioblastoma, breast, pancreatic, prostate, melanoma, lymphoma and Ewing sarcoma xenografts were assessed. […]

Compound	EC50 (IKBKAP^FL mRNA) [nM]	IC50 (IKBKAP^Δ20 mRNA) [nM]	EC50 (SMN2^FL mRNA) [nM]	IC50 (SMN2^Δ7 mRNA) [nM]	tumor growth inhibition (TGI), in words (A375 xenografts)
CN(c1ccc(-c2ccc(-c3cn[nH]c3)cc2O)nn1)[C@@H]1C[C@H]2CC[C@@H](C1)N2 [compound 138, 2-(6-(((1R,3s,5S)-8-azabicyclo[3.2.1]octan-3-yl)(methyl)amino)pyridazin-3-yl)-5-(1H-pyrazol-4-yl)phenol]	101 to 350	201 to 1000	1	1	–
CN(c1ccc(-c2ccc(-c3cn[nH]c3)cc2O)nn1)[C@H]1C[C@]2(C)CC[C@](C)(C1)N2 [compound 151, 2-(6-(((1R,3s,5S)-1,5-dimethyl-8-azabicyclo[3.2.1]octan-3-yl)(methyl)amino)pyridazin-3-yl)-5-(1H-pyrazol-4-yl)phenol]	–	–	0.7	0.9	led to tumor growth inhibition
CN(c1ccc(-c2ccc(-c3cn[nH]c3)cc2O)nn1)[C@@H]1C[C@H]2CCC[C@@H](C1)N2 [compound 160, 2-(6-(((1R,3s,5S)-9-azabicyclo[3.3.1]nonan-3-yl)(methyl)amino)pyridazin-3-yl)-5-(1H-pyrazol-4-yl)phenol]	< 100	< 200	0.6	0.7	led to tumor growth inhibition
